“And” between values parts separate entries of the source, which are not always exact repeats. Identical values can stand only once.
Experiment: Dissolution test of naltrexone from intact and ground tablets
Format: physicochemical
Method: Polylactid acid was injection moulded in a Haake Minijet (Haake MiniJet II, Thermo Electron, Karlsruhe, Germany) as described in Methods. An inner core filled with approximately 25 mg Naltrexone hydrochloride was prepared and closed in both ends with the above mentioned shell composition. The inner core has a size of 8 mm×4.26 mm×2.49 mm. The inner core was placed in the cavity of a larger shell 2 (H: 20 mm; L: 6 mm; B: 6 mm) with the same shell composition and the large shell was filled with placebo matrix composition as described in Methods.
Dissolution tests of naltrexone were performed in accordance to USP 30, NF 25, (711). Apparatus 2 (paddle method). The dissolution medium consisted of phosphate buffer solution pH 6.8. The volume of the dissolution medium was 500 ml and the rotation speed of the paddles was 50 rpm throughout the dissolution rum. The temperature was 37° C. Samples were withdrawn at suitable time intervals and analysed for content of active drug substance by means of HPLC UV detection. Intact tablets n=2 and tablets milled in a Coffee Grinder, Krups GVX242 (n=2) were analyse in dissolution.
The amount of naltrexone was determined by a modified USP method. The technique was reverse phase chromatography, using a Supelco Ascentis Express C18 2.7 μm 4.6*100 mm column. The mobile phase consisted of 1.08 g sodium 1-octanesulphonate, 23.8 g sodium acetate, 1 ml triethylamine, 450 ml methanol and approximately 550 ml water. The HPLC settings were as follows: Isocratic, column temperature 30° C. flow 0.6 ml/min, detection HPLC-UV at 280 nm, injection volume 20 μl with a 6 minutes run time.

O=C1CC[C@@]2(O)[C@H]3Cc4ccc(O)c5c4[C@@]2(CCN3CC2CC2)[C@H]1O5 [Naltrexone]
Amount of naltrexone found in dissolution medium (Ground tablet (Coffee Grinder, Krups GVX242), 0.2 hours, phosphate buffer pH 6.8, 100% = 25 mg): 34.1% and 31.5% | Amount of naltrexone found in dissolution medium (Ground tablet, 0.5 hours): 36.3% and 34.2% | Amount of naltrexone found in dissolution medium (Ground tablet, 0.8 hours): 36.6% and 34.7% | Amount of naltrexone found in dissolution medium (Ground tablet, 1.5 hours): 37.4% and 34.9% | Amount of naltrexone found in dissolution medium (Ground tablet, 20 hours): 39.0% and 37.1% | Amount of naltrexone found in dissolution medium (Ground tablet, 30 hours): 34.9% and 35.9%
